Source: article PMC4503722, “Novel Phenotypic Outcomes Identified for a Public Collection of Approved Drugs from a Publicly Accessible Panel of Assays” (PLoS ONE, 2015)
Read-outs that look alike come from different tables or passages of the source.

Tests used:
HT-29 = test: cells; type: cell-based
[1] = system: endothelial tube formation in co-cultures of ECFCs and ADSCs treated with VEGF; test: cells; type: cell-based, human
NCI-H716 cells = test: cells; type: cell-based, Human; conditions: Homo sapiens
[2] = system: HCT116 cells treated with a GSK3β inhibitor; test: cells; type: cell-based; conditions: Homo sapiens
hp70S6K1 (RPS6KB1) = molecular target: T1, hp70S6K1 (RPS6KB1) (Homo sapiens, UniProt P23443); test: Cerep LANCE kinase assay hp70S6K1 (S1 assay 31); type: biochemical; conditions: read-out: p70S6K1
T1 construct: purchased Cerep (LANCE kinase assay platform, contract assay)

HeLa cells = test: cells; type: cell-based; conditions: for EC50: read-out: CellCycle G2/M
[3] = system: nuclear β-catenin in C2C12 cells; test: cells; type: cell-based
hKDR = molecular target: T2, hKDR (Homo sapiens, UniProt P35968); test: Cerep LANCE kinase assay hKDR (S1 assay 32); type: biochemical; conditions: read-out: KDR
T2 construct: purchased Cerep (LANCE kinase assay platform, contract assay)

RKO = test: cells; type: cell-based
hFLT3 = molecular target: T3, hFLT3 (Homo sapiens, UniProt P36888); test: Cerep LANCE kinase assay hFLT3 (S1 assay 35); type: biochemical; conditions: read-out: FLT3
T3 construct: purchased Cerep (LANCE kinase assay platform, contract assay)

INS-1E cells = test: cells; type: cell-based, rat; conditions: Rattus norvegicus, INS-1E
Colo320 = test: cells; type: cell-based; conditions: Homo sapiens, COLO 320, read-out: Basal_Viability ATP Colo 320
hGSK3b = molecular target: T4, hGSK3b (Homo sapiens, UniProt P49841); test: Cerep LANCE kinase assay hGSK3b (S1 assay 34); type: biochemical; conditions: read-out: GSK3b
T4 construct: purchased Cerep (LANCE kinase assay platform, contract assay)

hJAK2 = molecular target: T5, hJAK2 (Homo sapiens, UniProt O60674); test: Cerep LANCE kinase assay hJAK2 (S1 assay 33); type: biochemical; conditions: read-out: JAK2
T5 construct: purchased Cerep (LANCE kinase assay platform, contract assay)

DLD-1 = test: cells; type: cell-based
SNU-C1 = test: cells; type: cell-based; conditions: Homo sapiens
HCT116 = test: cells; type: cell-based
SW480 = test: cells; type: cell-based
[4] = Homo sapiens, read-out: Anti-Angiogenesis
[5] = NCI-H716, read-out: GLP 1 Secretion
[6] = HCT-116, read-out: GSK3b inh pretreated_Viability ATP HCT116
[7] = Mus musculus, C2C12, read-out: Wnt Pathway
[8] = Homo sapiens, IC50 / EC50, endothelial tube area, ADSC/ECFC co-culture, read-out: Anti-Angiogenesis
[9] = Homo sapiens, read-out: Anti-Angio IC50
[10] = NCI-H716, read-out: GLP1 sec. EC50
[11] = HCT-116, read-out: HCT-116 (GSK3β) viab. IC50, Table 2, GSK3β inhibitor LY2090314 20 nM, 72 h, Cell TiterGlo, 20 coded
[12] = HCT-116, GSK3b inhibitor pretreated, read-out: GSK3b inh pretreated_Viability ATP HCT116
[13] = Mus musculus, C2C12, read-out: Wnt pot. EC50

T3 sequence (P36888 27-993): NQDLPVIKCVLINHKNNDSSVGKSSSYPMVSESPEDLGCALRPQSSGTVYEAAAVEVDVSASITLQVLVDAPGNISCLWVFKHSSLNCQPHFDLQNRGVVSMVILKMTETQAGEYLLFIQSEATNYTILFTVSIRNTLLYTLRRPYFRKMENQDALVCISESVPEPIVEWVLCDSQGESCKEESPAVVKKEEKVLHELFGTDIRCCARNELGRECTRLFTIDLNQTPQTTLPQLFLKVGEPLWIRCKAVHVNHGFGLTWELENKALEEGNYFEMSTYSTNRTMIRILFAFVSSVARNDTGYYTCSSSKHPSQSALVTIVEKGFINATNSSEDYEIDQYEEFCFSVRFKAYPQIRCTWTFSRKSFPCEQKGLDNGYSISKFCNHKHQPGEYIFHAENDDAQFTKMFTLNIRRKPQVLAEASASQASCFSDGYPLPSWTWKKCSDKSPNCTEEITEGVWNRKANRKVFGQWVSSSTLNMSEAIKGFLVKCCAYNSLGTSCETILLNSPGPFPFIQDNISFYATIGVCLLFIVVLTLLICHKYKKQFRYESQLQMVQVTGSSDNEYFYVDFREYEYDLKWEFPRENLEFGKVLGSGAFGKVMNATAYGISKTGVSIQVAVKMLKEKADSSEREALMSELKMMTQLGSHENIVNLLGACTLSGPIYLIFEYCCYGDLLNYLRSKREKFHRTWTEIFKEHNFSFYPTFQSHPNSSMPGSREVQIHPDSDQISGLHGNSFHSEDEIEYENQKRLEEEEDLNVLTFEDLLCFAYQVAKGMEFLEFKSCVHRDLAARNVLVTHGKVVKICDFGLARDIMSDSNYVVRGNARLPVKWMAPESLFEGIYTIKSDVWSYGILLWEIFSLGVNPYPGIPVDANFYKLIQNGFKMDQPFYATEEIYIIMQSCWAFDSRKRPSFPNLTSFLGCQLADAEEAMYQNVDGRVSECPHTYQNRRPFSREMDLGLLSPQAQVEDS
T2 sequence (P35968 20-1356): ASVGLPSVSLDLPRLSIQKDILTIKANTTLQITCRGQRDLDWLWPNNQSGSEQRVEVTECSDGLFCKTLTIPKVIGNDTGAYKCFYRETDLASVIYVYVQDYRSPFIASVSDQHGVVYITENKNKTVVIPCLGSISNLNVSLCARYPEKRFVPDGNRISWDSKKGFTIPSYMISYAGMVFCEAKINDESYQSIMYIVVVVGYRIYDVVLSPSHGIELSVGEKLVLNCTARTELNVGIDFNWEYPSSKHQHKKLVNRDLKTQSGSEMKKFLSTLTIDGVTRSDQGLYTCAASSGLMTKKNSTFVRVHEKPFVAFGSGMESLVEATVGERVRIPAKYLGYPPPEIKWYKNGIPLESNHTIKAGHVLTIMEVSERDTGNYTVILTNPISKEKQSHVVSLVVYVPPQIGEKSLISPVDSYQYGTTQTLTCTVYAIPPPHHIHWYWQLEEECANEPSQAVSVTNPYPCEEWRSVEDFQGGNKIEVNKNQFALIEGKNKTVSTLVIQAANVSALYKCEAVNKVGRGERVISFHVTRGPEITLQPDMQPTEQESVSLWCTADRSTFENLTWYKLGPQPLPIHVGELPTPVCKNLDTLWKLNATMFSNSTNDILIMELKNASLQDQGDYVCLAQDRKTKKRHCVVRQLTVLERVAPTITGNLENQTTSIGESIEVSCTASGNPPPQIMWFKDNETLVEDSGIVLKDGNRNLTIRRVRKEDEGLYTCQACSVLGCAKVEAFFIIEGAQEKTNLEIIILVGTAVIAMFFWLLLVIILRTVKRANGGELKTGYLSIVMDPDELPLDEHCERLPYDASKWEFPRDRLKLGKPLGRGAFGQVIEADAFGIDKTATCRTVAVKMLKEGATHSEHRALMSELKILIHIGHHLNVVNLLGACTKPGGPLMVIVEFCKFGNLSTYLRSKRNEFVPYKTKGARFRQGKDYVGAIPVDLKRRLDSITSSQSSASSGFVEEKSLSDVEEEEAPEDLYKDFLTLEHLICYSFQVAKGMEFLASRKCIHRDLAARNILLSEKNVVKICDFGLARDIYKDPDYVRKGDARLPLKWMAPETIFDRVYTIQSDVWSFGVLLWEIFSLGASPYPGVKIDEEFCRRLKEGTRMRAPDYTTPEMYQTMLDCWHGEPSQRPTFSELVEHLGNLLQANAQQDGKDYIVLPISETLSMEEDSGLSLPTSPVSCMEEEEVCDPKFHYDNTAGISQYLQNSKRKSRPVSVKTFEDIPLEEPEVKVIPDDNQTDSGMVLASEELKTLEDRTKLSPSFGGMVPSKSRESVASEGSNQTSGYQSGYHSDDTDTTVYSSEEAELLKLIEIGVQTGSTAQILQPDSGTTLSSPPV
T1 sequence (P23443 whole entry): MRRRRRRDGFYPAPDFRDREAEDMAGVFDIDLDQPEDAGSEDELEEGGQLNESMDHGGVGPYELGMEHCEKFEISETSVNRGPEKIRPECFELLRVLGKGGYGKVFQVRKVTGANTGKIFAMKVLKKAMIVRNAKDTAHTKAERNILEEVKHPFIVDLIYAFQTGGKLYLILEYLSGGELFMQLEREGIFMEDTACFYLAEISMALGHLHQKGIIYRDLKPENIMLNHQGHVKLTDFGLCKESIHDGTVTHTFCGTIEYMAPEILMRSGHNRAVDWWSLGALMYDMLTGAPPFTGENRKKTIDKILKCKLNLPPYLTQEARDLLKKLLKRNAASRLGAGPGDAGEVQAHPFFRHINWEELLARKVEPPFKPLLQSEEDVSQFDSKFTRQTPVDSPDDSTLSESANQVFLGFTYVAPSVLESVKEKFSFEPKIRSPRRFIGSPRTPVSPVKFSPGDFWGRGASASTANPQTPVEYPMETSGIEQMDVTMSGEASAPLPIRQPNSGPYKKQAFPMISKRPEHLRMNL
T4 sequence (P49841 whole entry): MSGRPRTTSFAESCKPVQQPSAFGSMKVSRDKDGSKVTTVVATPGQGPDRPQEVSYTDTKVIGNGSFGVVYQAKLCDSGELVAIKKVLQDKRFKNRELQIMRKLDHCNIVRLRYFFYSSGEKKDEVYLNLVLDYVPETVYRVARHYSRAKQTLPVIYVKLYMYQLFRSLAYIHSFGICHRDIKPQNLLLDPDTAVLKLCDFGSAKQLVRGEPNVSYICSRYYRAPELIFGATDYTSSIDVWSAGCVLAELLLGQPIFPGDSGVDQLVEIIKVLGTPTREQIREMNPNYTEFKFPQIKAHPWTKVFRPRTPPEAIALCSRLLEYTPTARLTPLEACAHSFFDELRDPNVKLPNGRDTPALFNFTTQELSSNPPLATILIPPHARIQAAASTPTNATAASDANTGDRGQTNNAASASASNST
T5 sequence (O60674 whole entry): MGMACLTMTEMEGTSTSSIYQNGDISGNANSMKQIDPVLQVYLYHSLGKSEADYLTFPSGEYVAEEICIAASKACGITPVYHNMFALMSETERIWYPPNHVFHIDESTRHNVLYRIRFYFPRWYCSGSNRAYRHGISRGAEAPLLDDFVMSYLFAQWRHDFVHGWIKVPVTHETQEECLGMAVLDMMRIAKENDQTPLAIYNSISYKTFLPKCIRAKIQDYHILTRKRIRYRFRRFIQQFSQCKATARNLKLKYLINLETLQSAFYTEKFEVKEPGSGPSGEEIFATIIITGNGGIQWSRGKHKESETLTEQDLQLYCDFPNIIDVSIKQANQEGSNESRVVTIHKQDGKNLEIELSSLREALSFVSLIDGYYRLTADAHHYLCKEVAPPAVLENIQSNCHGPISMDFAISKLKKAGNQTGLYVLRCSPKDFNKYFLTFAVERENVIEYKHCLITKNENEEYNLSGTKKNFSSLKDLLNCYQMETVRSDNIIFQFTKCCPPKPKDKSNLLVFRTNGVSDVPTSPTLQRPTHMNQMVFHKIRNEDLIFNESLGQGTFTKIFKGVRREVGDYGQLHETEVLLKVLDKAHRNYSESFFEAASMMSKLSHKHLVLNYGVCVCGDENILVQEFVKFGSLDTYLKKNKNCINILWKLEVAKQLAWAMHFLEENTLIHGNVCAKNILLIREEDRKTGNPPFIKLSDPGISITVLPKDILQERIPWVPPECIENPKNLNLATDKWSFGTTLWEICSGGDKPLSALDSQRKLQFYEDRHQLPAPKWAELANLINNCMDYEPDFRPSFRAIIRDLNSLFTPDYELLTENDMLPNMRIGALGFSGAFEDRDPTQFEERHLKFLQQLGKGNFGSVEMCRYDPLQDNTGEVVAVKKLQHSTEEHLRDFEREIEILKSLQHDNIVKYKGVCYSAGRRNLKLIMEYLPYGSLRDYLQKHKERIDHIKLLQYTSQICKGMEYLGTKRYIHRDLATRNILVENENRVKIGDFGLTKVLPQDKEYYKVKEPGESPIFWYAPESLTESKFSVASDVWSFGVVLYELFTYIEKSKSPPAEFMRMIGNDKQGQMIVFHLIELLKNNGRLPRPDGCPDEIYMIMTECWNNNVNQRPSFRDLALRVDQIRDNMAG

| Structure (SMILES) | IC50 [1, 4] [nM] | EC50 (NCI-H716 cells; [5]) [nM] | IC50 [2, 6] [nM] | IC50 (hp70S6K1 (RPS6KB1)) [nM] | EC50 (HeLa cells; Homo sapiens, HeLa) [nM] | EC50 [3, 7] [nM] | IC50 (hKDR) [nM] | IC50 (hFLT3) [nM] | EC50 (INS-1E cells; read-out: Insulin Secretion) [nM] | IC50 (hGSK3b) [nM] | IC50 (hJAK2) [nM] | IC50 [1, 8] [nM] | IC50 [1, 9] [nM] | EC50 (NCI-H716 cells; [10]) [nM] | IC50 [2, 11] [nM] | IC50 [2, 12] [nM] | EC50 [3, 13] [nM] | EC50 (INS-1E cells; read-out: Ins. sec. EC50) [nM] | further results |
| --- | --- | --- | --- | --- | --- | --- | --- | --- | --- | --- | --- | --- | --- | --- | --- | --- | --- | --- | --- |
| CC[C@]1(O)C[C@@H]2CN(CCc3c([nH]c4ccccc34)[C@@](C(=O)OC)(c3cc4c(cc3OC)N(C)[C@H]3[C@@](O)(C(=O)OC)[C@H](OC(C)=O)[C@]5(CC)C=CCN6CC[C@]43[C@@H]65)C2)C1 [Vinblastine] | 2.3 | > 10000 | 1 | > 20000 | 3.2 | 5.8 | > 20000 | > 20000 | > 10000 | > 20000 | > 20000 |  |  |  |  |  |  |  | IC50 (HT-29; Homo sapiens, HT-29, read-out: Basal_Viability ATP HT-29): 1 nM; IC50 ([1]; read-out: Anti-Angiogenesis): 2.6 nM; EC50 (HeLa cells): 4.83 nM; EC50 ([3]; read-out: Wnt Pathway): 3.5 nM; IC50 (RKO; Homo sapiens, RKO, read-out: Basal_Viability ATP RKO): 1 nM; IC50 (Colo320): 1 nM |
| CC(C)C[C@H](NC(=O)[C@H](CCc1ccccc1)NC(=O)CN1CCOCC1)C(=O)N[C@@H](Cc1ccccc1)C(=O)N[C@@H](CC(C)C)C(=O)[C@@]1(C)CO1 [carfilzomib, reference compound] |  |  |  | > 20000 |  |  | > 20000 | > 20000 |  | > 20000 | > 20000 | 20.4 | 20 | > 10000 | 2 | 1.73 | 15 | > 10000 | IC50 (HT-29; Homo sapiens, HT-29; Table 2; 72 h, Cell TiterGlo, non-adherent; 20 coded; read-out: HT-29 viab. IC50): 3 nM; IC50 (HT-29; Homo sapiens, HT-29; read-out: Basal_Viability ATP HT-29): 3.18 nM; IC50 (DLD-1; Homo sapiens, DLD-1, 72 h, Table 2; 72 h, Cell TiterGlo, non-adherent; 20 coded; read-out: DLD-1 viab. IC50): 7 nM; IC50 (DLD-1; Homo sapiens, DLD-1, basal; read-out: Basal_Viability ATP DLD-1): 6.96 nM; IC50 (SNU-C1; SNU-C1, 72 h, Table 2, 72 h, Cell TiterGlo, non-adherent, 20 coded, read-out: SNU-C1 viab. IC50): 1 nM; IC50 (SNU-C1; SNU-C1, basal, read-out: Basal_Viability ATP SNU-C1): 1.47 nM; EC50 (HeLa cells; Homo sapiens, HeLa, IC50 / EC50, HeLa): > 10000 nM; EC50 ([3]; Mus musculus, C2C12, IC50 / EC50, C2C12 beta-catenin translocation, read-out: Wnt Pathway): 15.2 nM; IC50 (RKO; Homo sapiens, RKO; Table 2; 72 h, Cell TiterGlo, non-adherent; 20 coded; read-out: RKO viab. IC50): 4 nM; IC50 (RKO; Homo sapiens, RKO; read-out: Basal_Viability ATP RKO): 3.94 nM; IC50 (HCT116; Homo sapiens, HCT-116, 72 h, read-out: HCT-116 viab. IC50, Table 2; basal; 72 h, Cell TiterGlo, non-adherent; 20 coded): 6 nM; IC50 (HCT116; Homo sapiens, HCT-116, basal; read-out: Basal_Viability ATP HCT116): 5.58 nM |
| C=C(C)[C@H]1Cc2c(ccc3c2O[C@@H]2COc4cc(OC)c(OC)cc4[C@@H]2C3=O)O1 [rotenone, reference compound] |  |  |  | > 20000 |  |  | > 20000 | > 20000 |  | > 20000 | > 20000 | 25.7 | 26 | > 10000 | 67 | 66.7 | 250 | > 10000 | IC50 (SW480; Homo sapiens, SW480; Table 2; 72 h, Cell TiterGlo, non-adherent; 20 coded; read-out: SW480 viab. IC50): 160 nM; IC50 (SW480; Homo sapiens, SW480; read-out: Basal_Viability ATP SW480): 162 nM; IC50 (DLD-1; Homo sapiens, DLD-1; Table 2; 72 h, Cell TiterGlo, non-adherent; 20 coded; read-out: DLD-1 viab. IC50): 350 nM; IC50 (DLD-1; Homo sapiens, DLD-1; read-out: Basal_Viability ATP DLD-1): 350 nM; G2/M IC50 / EC50 (HeLa cells): 310 nM; EC50 (HeLa cells; Homo sapiens, IC50 / EC50, HeLa): 311 nM; EC50 ([3]; Mus musculus, IC50 / EC50, C2C12 beta-catenin translocation, read-out: Wnt Pathway): 254 nM; IC50 (HCT116; Homo sapiens, HCT-116, read-out: HCT-116 viab. IC50; Table 2; basal; 72 h, Cell TiterGlo, non-adherent; 20 coded): 1200 nM; IC50 (HCT116; Homo sapiens, HCT-116; read-out: Basal_Viability ATP HCT116): 1180 nM |
| CC[C@]1(O)C[C@H]2CN(CCc3c([nH]c4ccccc34)[C@@](C(=O)OC)(c3cc4c(cc3OC)N(C=O)[C@H]3[C@@](O)(C(=O)OC)[C@H](OC(C)=O)[C@]5(CC)C=CCN6CC[C@]43[C@@H]65)C2)C1 [vincristine] | 6.5 | > 10000 | 66.7 | > 20000 | 5.9 | 4 | > 20000 | > 20000 | > 10000 | > 20000 | > 20000 |  |  |  |  |  |  |  | IC50 (SW480; Homo sapiens, SW480, read-out: Basal_Viability ATP SW480): 3080 nM; IC50 (DLD-1; Homo sapiens, DLD-1, read-out: Basal_Viability ATP DLD-1): 786 nM; IC50 (HCT116; Homo sapiens, HCT-116, read-out: Basal_Viability ATP HCT116): 126 nM |
